According to US10632110B2, “Pharmaceutical composition for preventing or treating cancer and method using thereof” (MEDPACTO INC., priority 2016, dated 2020):
Marks after values point to notes of the source that are not given here.

How the values were obtained:
Type in all cases: in vivo, C57BL/6 mice
[1] = Measurement of weight caused by administration drug in melanoma mouse model
Experimental: (§1) In order to validate in vivo anti-tumor effects, female 5 week-old SPF C57BL/6 mice were purchased from Koatech Co. (South Korea). These mice were maintained in a room controlled at a temperature of about 22° C. while freely supplying food and water to them. 1 week after, 5×10^4 cells of B16F10 melanoma cell line (ATCC, CRL-6475™) were injected to these 6 week-old mice by subcutaneous injection. 8 week-old mice, 2 weeks after the injection of melanoma cell line, were used in the experiment.
(§2) As a carrier, 7 ml of 37% (v/v) […], 2.0 g of NaCl, 3.2 g of pepsin (Sigma-Aldrich), and distilled water were mixed together to prepare 1,000 ml of artificial gastric fluid. As an administration drug, N-((4-([1,2,4]triazolo[1,5-a]pyridin-6-yl)-5-(6-methylpyridin-2-yl)-1H-imidazol-2-yl)methyl)-2-fluoroaniline (hereinafter, referred to as “TEW-7197”) (Syngene, India) was dissolved in the carrier to prepare 2.5 mg/ml of TEW-7197 solution.
(§3) As for another administration drug, anti-PD-L1 monoclonal antibody (prepared by requesting to ANR therapeutics co., Ltd., host cell: HEK293F), anti-PD1 monoclonal hamster antibody (BioXCell, Cat. No. BE0033-2), anti-CTLA4 monoclonal hamster antibody (BioXCell, Cat. No. BE0131), human immunoglobulin G (IgG) (Thermo Scientific, Cat. No. 31154), and monoclonal hamster IgG (BioXCell, Cat. No. BE0091) were prepared.
(§4) The mouse models prepared in 1. were orally administered with 2.5 mg/ml of a TEW-7197 solution at a dose of 25 mg/weight kg once a day for 5 consecutive days of a week. Then, during the last 2 days, the TEW-7197 solution was not administered to them. These mice were administered with antibody at a dose of about 100 μg per mouse once every 2 days by abdominal injection. As for a control group for TEW-7197, a carrier administered group was used. As for a control group for antibody, a human IgG administered group and a hamster IgG administered group were used.
From the day that the drugs were administered (start date) to the 11th day, the weights of mice were measured every 2 days.

[2] = test system: B16F10 melanoma cell line; experiment: Test of synergistic combination of drugs in mouse model; settings: 11 days after drug administration, TEW-7197 10 mg/kg oral, antibody about 100 μg per mouse
Experimental: In detail, as described in 1., C57BL/6 mice were prepared, and 1×10^4 cells of B16F10 melanoma cell line (ATCC, CRL-6475™) were injected to each of the mice. When the average tumor size of each group reached about 26.0 mm^3, drug administration was carried out.
As described in 1., TEW-7197, anti-CTLA4 antibody, anti-PD-L1 antibody, anti-PD1 antibody, human IgG, and hamster IgG were prepared as drugs.
The prepared mice were orally administered with a TEW-7197 solution at a dose of 10 mg/weight kg once a day for 5 consecutive days of a week. Then, during the last 2 days, the TEW-7197 solution was not administered. These mice were administered with antibody at a dose of about 100 μg per mouse once every 2 days by abdominal injection. In a negative control group, a vehicle was administered for TEW-7197, and human IgG or hamster IgG was administered for antibody. 11 days after the drug administration, tumor volume was measured with calipers and calculated as described in 3.

[3] = test system: B16F10 melanoma cell line; experiment: Test of tumor inhibitory effects of drug in mouse model; design: tumor inhibition rate (vs. vehicle, human IgG or hamster IgG administered group): concentration or dose not given beside the values; settings: for Tumor volume change (Δt = Vt − V0): TEW-7197 25 mg/kg oral, antibody about 100 μg per mouse
Experimental: as §1, §2, §3, §4
As described in 2., drug administration was carried out, and then 20 minutes after the last dose of the drug, mice were sacrificed, tumors were resected from the mice. Tumor volume was measured with calipers and calculated using Equation 1: Tumor volume (mm^3)=[length (mm)×width (mm)×height (mm)]/2 [Equation 1]
The difference between the initial tumor volume (V0) in the start date and the tumor volume after drug administration (Vt) was calculated, to calculate the change in tumor volume (Δt=Vt−V0). From the calculated tumor volume, the tumor inhibition rate (%) by drug administration was calculated.

Cc1cccc(-c2[nH]c(CNc3ccccc3F)nc2-c2ccc3ncnn3c2)n1 [TEW-7197, N-((4-([1,2,4]triazolo[1,5-a]pyridin-6-yl)-5-(6-methylpyridin-2-yl)-1H-imidazol-2-yl)methyl)-2-fluoroaniline]
weight change of mice (average (%) ± standard deviation) ([1]; 2 days after administration, TEW-7197 25 mg/kg oral, antibody about 100 μg per mouse): 104.3 ± 1.2% | weight change of mice (average (%) ± standard deviation) ([1]; 4 days after administration, TEW-7197 25 mg/kg oral, antibody about 100 μg per mouse): 106.7 ± 3.5% | weight change of mice (average (%) ± standard deviation) ([1]; 6 days after administration, TEW-7197 25 mg/kg oral, antibody about 100 μg per mouse): 108.7 ± 4.5% | weight change of mice (average (%) ± standard deviation) ([1]; 8 days after administration, TEW-7197 25 mg/kg oral, antibody about 100 μg per mouse): 115.8 ± 6.4% | weight change of mice (average (%) ± standard deviation) ([1]; 11 days after administration, TEW-7197 25 mg/kg oral, antibody about 100 μg per mouse): 125.0 ± 6.5% | weight change of mice (average (%) ± standard deviation) ([1]; Start date, TEW-7197 25 mg/kg oral once a day 5 days a week, antibody about 100 μg per mouse every 2 days abdominal injection): 100.0 ± 0.0% | weight change caused by drug (in words) ([1]; up to 11th day, Table 2): barely had significant weight change | tumor volume decrease as compared with the negative control group ([2]; FIG. 1A (anti-CTLA4 series)): about 10.1% | tumor volume decrease as compared with the negative control group ([2]; FIG. 1B (anti-PD-L1 series)): about 9.2% | tumor volume decrease as compared with the negative control group ([2]; FIG. 1C (anti-PD1 series)): about 8.1% | tumor inhibition rate (vs. vehicle, human IgG or hamster IgG administered group) ([3]; 2 days after administration): 21.3% | Tumor volume change (Δt = Vt − V0) ([3]; 2 days after administration): 30.4 ± 6.6 mm^3 | tumor inhibition rate (vs. vehicle, human IgG or hamster IgG administered group) ([3]; 4 days after administration): 21.7% | Tumor volume change (Δt = Vt − V0) ([3]; 4 days after administration): 100.4 ± 11.4* mm^3 | tumor inhibition rate (vs. vehicle, human IgG or hamster IgG administered group) ([3]; 6 days after administration): 23.0% | Tumor volume change (Δt = Vt − V0) ([3]; 6 days after administration): 174.5 ± 29.6** mm^3 | tumor inhibition rate (vs. vehicle, human IgG or hamster IgG administered group) ([3]; 8 days after administration): 22.9% | Tumor volume change (Δt = Vt − V0) ([3]; 8 days after administration): 455.3 ± 67.1* mm^3 | tumor inhibition rate (vs. vehicle, human IgG or hamster IgG administered group) ([3]; 11 days after administration): 20.9% | Tumor volume change (Δt = Vt − V0) ([3]; 11 days after administration): 1084.0 ± 179.5* mm^3 | Tumor volume change (Δt = Vt − V0) ([3]; Start date): 0.0 ± 0.0 mm^3
